Experimental data taken from patent publication US20230085307A1, “PYRIDAZINONE COMPOUND AND HERBICIDE” (NISSAN CHEMICAL CORPORATION, priority 2019, published 2023).

How the values were obtained:
[1] = test system: chickweed; experiment: Test Example 4: herbicidal effect by soil treatment (Table 19, symbol P); format: in vivo, common chickweed (Stellaria media); conditions: amount of applied herbicide 320 g/ha
Outline: (§1)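 Emulsion of test compound, water-diluted to predetermined amount, sprayed on soil after sowing (seed depth ~1.5 cm, sterilized diluvial soil). Greenhouse, 25–30° C. Effect graded at three weeks post-spray.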

[2] = test system: blackgrass; experiment: Test Example 4: herbicidal effect by soil treatment (Table 19, symbol J); format: in vivo, blackgrass (Alopecurus myosuroides); conditions: amount of applied herbicide 320 g/ha
Outline: as §1

[3] = test system: green foxtail; experiment: Test Example 5: herbicidal effect by foliage application, plastic box (Table 20, symbol G); format: in vivo, green foxtail (Setaria viridis); conditions: foliage application, 320 g/ha, three weeks after application
Outline: (§2)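 Post-emergence foliar test in sterilized diluvial soil. Compound applied as water-diluted emulsion at a predetermined rate to 14-day-old plants; evaluation at three weeks.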

[4] = test system: windgrass; experiment: Test Example 4: herbicidal effect by soil treatment (Table 19, symbol L); format: in vivo, windgrass (Apera spica-venti); conditions: amount of applied herbicide 320 g/ha
Outline: as §1

[5] = test system: blackgrass; experiment: Test Example 5: herbicidal effect by foliage application, plastic box (Table 20, symbol J); format: in vivo, blackgrass (Alopecurus myosuroides); conditions: foliage application, 320 g/ha, three weeks after application
Outline: as §2

[6] = test system: lambsquarters; experiment: Test Example 4: herbicidal effect by soil treatment (Table 19, symbol O); format: in vivo, lambsquarters (Chenopodium album); conditions: amount of applied herbicide 320 g/ha
Outline: as §1

[7] = test system: barnyard grass; experiment: Test Example 3: herbicidal effect by foliage application, Wagner pot (Table 18, symbol H); format: in vivo, barnyard grass (Echinochloa crus-galli)
Outline: (§3)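 Plants were sown in alluvial soil held under 0.1–0.5 cm standing water and grown 14 days in a greenhouse at 25–30 °C. An emulsifiable formulation, water-diluted to the set dose, was then sprayed onto the foliage, and effects were scored three weeks later using previously defined criteria.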

[8] = test system: green foxtail; experiment: Test Example 4: herbicidal effect by soil treatment (Table 19, symbol G); format: in vivo, green foxtail (Setaria viridis); conditions: amount of applied herbicide 320 g/ha
Outline: as §1

[9] = test system: persian speedwell; experiment: Test Example 5: herbicidal effect by foliage application, plastic box (Table 20, symbol R); format: in vivo, Persian speedwell (Veronica persica); conditions: foliage application, 320 g/ha, three weeks after application
Outline: as §2

[10] = test system: redroot pigweed; experiment: Test Example 4: herbicidal effect by soil treatment (Table 19, symbol N); format: in vivo, redroot pigweed (Amaranthus retroflexus); conditions: amount of applied herbicide 320 g/ha
Outline: as §1

[11] = test system: Italian ryegrass; experiment: Test Example 4: herbicidal effect by soil treatment (Table 19, symbol K); format: in vivo, Italian ryegrass (Lolium multiflorum); conditions: amount of applied herbicide 320 g/ha
Outline: as §1

[12] = test system: lambsquarters; experiment: Test Example 5: herbicidal effect by foliage application, plastic box (Table 20, symbol O); format: in vivo, lambsquarters (Chenopodium album); conditions: foliage application, 320 g/ha, three weeks after application
Outline: as §2

[13] = test system: velvetleaf; experiment: Test Example 4: herbicidal effect by soil treatment (Table 19, symbol M); format: in vivo, velvetleaf (Abutilon theophrasti); conditions: amount of applied herbicide 320 g/ha
Outline: as §1

[14] = test system: wild oat; experiment: Test Example 5: herbicidal effect by foliage application, plastic box (Table 20, symbol I); format: in vivo, wild oat (Avena fatua); conditions: foliage application, 320 g/ha, three weeks after application
Outline: as §2

[15] = test system: southern crabgrass; experiment: Test Example 4: herbicidal effect by soil treatment (Table 19, symbol F); format: in vivo, southern crabgrass (Digitaria ciliaris); conditions: amount of applied herbicide 320 g/ha
Outline: as §1

[16] = test system: Japanese bulrush; experiment: Test Example 1: herbicidal activity, application before weed generation under submerged conditions (Table 16, symbol B); format: in vivo, Japanese bulrush (Schoenoplectus juncoides); conditions: amount of applied herbicide 320 g/ha
Outline: (§4)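 Emulsion formulation, water-diluted to set dose, was put onto the flooded surface (4 cm depth, alluvial soil) the same day weeds were sown and 2.5-leaf rice transplanted. After 3 weeks at 25-30 °C under glass, each species was rated 0 (≤5% kill) to 5 (≥90% kill).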

[17] = test system: persian speedwell; experiment: Test Example 4: herbicidal effect by soil treatment (Table 19, symbol R); format: in vivo, Persian speedwell (Veronica persica); conditions: amount of applied herbicide 320 g/ha
Outline: as §1

[18] = test system: barnyard grass; experiment: Test Example 4: herbicidal effect by soil treatment (Table 19, symbol H); format: in vivo, barnyard grass (Echinochloa crus-galli); conditions: amount of applied herbicide 320 g/ha
Outline: as §1

[19] = test system: late watergrass; experiment: Test Example 1: herbicidal activity, application before weed generation under submerged conditions (Table 16, symbol A); format: in vivo, late watergrass (Echinochloa oryzicola); conditions: amount of applied herbicide 320 g/ha
Outline: as §4

[20] = test system: rice flat sedge; experiment: Test Example 3: herbicidal effect by foliage application, Wagner pot (Table 18, symbol E); format: in vivo, rice flat sedge (Cyperus iria)
Outline: as §3

[21] = test system: wild oat; experiment: Test Example 4: herbicidal effect by soil treatment (Table 19, symbol I); format: in vivo, wild oat (Avena fatua); conditions: amount of applied herbicide 320 g/ha
Outline: as §1

[22] = test system: southern crabgrass; experiment: Test Example 5: herbicidal effect by foliage application, plastic box (Table 20, symbol F); format: in vivo, southern crabgrass (Digitaria ciliaris); conditions: foliage application, 320 g/ha, three weeks after application
Outline: as §2

[23] = test system: redroot pigweed; experiment: Test Example 5: herbicidal effect by foliage application, plastic box (Table 20, symbol N); format: in vivo, redroot pigweed (Amaranthus retroflexus); conditions: foliage application, 320 g/ha, three weeks after application
Outline: as §2

[24] = test system: oval-leafed pondweed; experiment: Test Example 1: herbicidal activity, application before weed generation under submerged conditions (Table 16, symbol C); format: in vivo, oval-leafed pondweed (Monochoria vaginalis); conditions: amount of applied herbicide 320 g/ha
Outline: as §4

[25] = test system: chickweed; experiment: Test Example 5: herbicidal effect by foliage application, plastic box (Table 20, symbol P); format: in vivo, common chickweed (Stellaria media); conditions: foliage application, 320 g/ha, three weeks after application
Outline: as §2

[26] = test system: windgrass; experiment: Test Example 5: herbicidal effect by foliage application, plastic box (Table 20, symbol L); format: in vivo, windgrass (Apera spica-venti); conditions: foliage application, 320 g/ha, three weeks after application
Outline: as §2

[27] = test system: velvetleaf; experiment: Test Example 5: herbicidal effect by foliage application, plastic box (Table 20, symbol M); format: in vivo, velvetleaf (Abutilon theophrasti); conditions: foliage application, 320 g/ha, three weeks after application
Outline: as §2

[28] = test system: Chinese sprangletop; experiment: Test Example 3: herbicidal effect by foliage application, Wagner pot (Table 18, symbol D); format: in vivo, chinese sprangletop (Leptochloa chinensis)
Outline: as §3

[29] = test system: barnyard grass; experiment: Test Example 5: herbicidal effect by foliage application, plastic box (Table 20, symbol H); format: in vivo, barnyard grass (Echinochloa crus-galli); conditions: foliage application, 320 g/ha, three weeks after application
Outline: as §2

[30] = test system: Italian ryegrass; experiment: Test Example 5: herbicidal effect by foliage application, plastic box (Table 20, symbol K); format: in vivo, Italian ryegrass (Lolium multiflorum); conditions: foliage application, 320 g/ha, three weeks after application
Outline: as §2

[31] = amount of applied herbicide 320 g/ha

SMILES	G: green foxtail, herbicidal effect grade [3]	J: blackgrass, herbicidal effect grade [5]	R: persian speedwell, herbicidal effect grade [9]	O: lambsquarters, herbicidal effect grade [12]	I: wild oat, herbicidal effect grade [14]	Herbicidal effect, B: Japanese bulrush [16]	Herbicidal effect, A: late watergrass [19]	F: southern crabgrass, herbicidal effect grade [22]	N: redroot pigweed, herbicidal effect grade [23]	Herbicidal effect, C: oval-leafed pondweed [24]	P: chickweed, herbicidal effect grade [25]	L: windgrass, herbicidal effect grade [26]	M: velvetleaf, herbicidal effect grade [27]	H: barnyard grass, herbicidal effect grade [29]	K: Italian ryegrass, herbicidal effect grade [30]	further results
COc1ccccc1-c1sc2cc(F)ccc2c1-c1c(OC(=O)COc2ccccc2)c(C)nn(C)c1=O [3-021]	5 (Herbicidal rate of 90% or more (almost completely withered))	4 (Herbicidal rate of 70% or more and less than 90%)	4 (Herbicidal rate of 70% or more and less than 90%)	5 (Herbicidal rate of 90% or more (almost completely withered))	4 (Herbicidal rate of 70% or more and less than 90%)	3 (Herbicidal rate of 40% or more and less than 70%)	3 (Herbicidal rate of 40% or more and less than 70%)	4 (Herbicidal rate of 70% or more and less than 90%)	5 (Herbicidal rate of 90% or more (almost completely withered))	4 (Herbicidal rate of 70% or more and less than 90%)	5 (Herbicidal rate of 90% or more (almost completely withered))	5 (Herbicidal rate of 90% or more (almost completely withered))	5 (Herbicidal rate of 90% or more (almost completely withered))	5 (Herbicidal rate of 90% or more (almost completely withered))	4 (Herbicidal rate of 70% or more and less than 90%)	herbicidal effect, P: chickweed [1]: 3 (Herbicidal rate of 40% or more and less than 70%); herbicidal effect, J: blackgrass [2]: 4 (Herbicidal rate of 70% or more and less than 90%); herbicidal effect, L: windgrass [4]: 3 (Herbicidal rate of 40% or more and less than 70%); herbicidal effect, O: lambsquarters [6]: 4 (Herbicidal rate of 70% or more and less than 90%); herbicidal effect on H: barnyard grass [7, 31]: 5 (Herbicidal rate of 90% or more (almost completely withered)); herbicidal effect, G: green foxtail [8]: 4 (Herbicidal rate of 70% or more and less than 90%); herbicidal effect, N: redroot pigweed [10]: 4 (Herbicidal rate of 70% or more and less than 90%); herbicidal effect, K: Italian ryegrass [11]: 4 (Herbicidal rate of 70% or more and less than 90%); herbicidal effect, M: velvetleaf [13]: 0 (Herbicidal rate of 5% or less (almost no effect)); herbicidal effect, F: southern crabgrass [15]: 3 (Herbicidal rate of 40% or more and less than 70%); herbicidal effect, R: persian speedwell [17]: 4 (Herbicidal rate of 70% or more and less than 90%); herbicidal effect, H: barnyard grass [18]: 4 (Herbicidal rate of 70% or more and less than 90%); herbicidal effect on E: rice flat sedge [20, 31]: 5 (Herbicidal rate of 90% or more (almost completely withered)); herbicidal effect, I: wild oat [21]: 1 (Herbicidal rate of 5% or more and less than 20%); herbicidal effect on D: Chinese sprangletop [28, 31]: 3 (Herbicidal rate of 40% or more and less than 70%)
Cc1nn(C)c(=O)c(-c2c(-c3ccc4c(c3)OCCO4)sc3cc(Cl)ccc23)c1O [3-047]	0 (Herbicidal rate of 5% or less (almost no effect))	0 (Herbicidal rate of 5% or less (almost no effect))	5 (Herbicidal rate of 90% or more (almost completely withered))	2 (Herbicidal rate of 20% or more and less than 40%)	0 (Herbicidal rate of 5% or less (almost no effect))	2 (Herbicidal rate of 20% or more and less than 40%)	3 (Herbicidal rate of 40% or more and less than 70%)	0 (Herbicidal rate of 5% or less (almost no effect))	0 (Herbicidal rate of 5% or less (almost no effect))	0 (Herbicidal rate of 5% or less (almost no effect))	3 (Herbicidal rate of 40% or more and less than 70%)	0 (Herbicidal rate of 5% or less (almost no effect))	1 (Herbicidal rate of 5% or more and less than 20%)	0 (Herbicidal rate of 5% or less (almost no effect))	0 (Herbicidal rate of 5% or less (almost no effect))	P: chickweed, herbicidal effect grade [1]: 0 (Herbicidal rate of 5% or less (almost no effect)); J: blackgrass, herbicidal effect grade [2]: 0 (Herbicidal rate of 5% or less (almost no effect)); L: windgrass, herbicidal effect grade [4]: 0 (Herbicidal rate of 5% or less (almost no effect)); O: lambsquarters, herbicidal effect grade [6]: 3 (Herbicidal rate of 40% or more and less than 70%); herbicidal effect on barnyard grass (H) ([7]; 320 g/ha): 3 (Herbicidal rate of 40% or more and less than 70%); G: green foxtail, herbicidal effect grade [8]: 0 (Herbicidal rate of 5% or less (almost no effect)); N: redroot pigweed, herbicidal effect grade [10]: 1 (Herbicidal rate of 5% or more and less than 20%); K: Italian ryegrass, herbicidal effect grade [11]: 0 (Herbicidal rate of 5% or less (almost no effect)); M: velvetleaf, herbicidal effect grade [13]: 0 (Herbicidal rate of 5% or less (almost no effect)); F: southern crabgrass, herbicidal effect grade [15]: 0 (Herbicidal rate of 5% or less (almost no effect)); R: persian speedwell, herbicidal effect grade [17]: 5 (Herbicidal rate of 90% or more (almost completely withered)); H: barnyard grass, herbicidal effect grade [18]: 0 (Herbicidal rate of 5% or less (almost no effect)); herbicidal effect on rice flat sedge (E) ([20]; 320 g/ha): 2 (Herbicidal rate of 20% or more and less than 40%); I: wild oat, herbicidal effect grade [21]: 0 (Herbicidal rate of 5% or less (almost no effect)); herbicidal effect on Chinese sprangletop (D) ([28]; 320 g/ha): 3 (Herbicidal rate of 40% or more and less than 70%)
